Results on one compound are retold here after US20240124503A1, “HETEROAROMATIC PHOSPHONIUM SALTS AND THEIR USE TREATING CANCER” (FLORATEK PHARMA S.A., priority 2021, published 2024).

Holding throughout (type): cell-based
For one experiment, the system named is Mia-Pa-Ca-2. In words: Cell viability assay, Mia-Pa-Ca-2. The conditions noted are these: Homo sapiens, MIA PaCa-2; pancreatic carcinoma cell line Mia-Pa-Ca-2. As to the method: (§1) Antitumor activity of the compounds and doxorubicin as a positive control was assessed by using the CellTiter-Blue Cell Viability Assay (Promega, #G8082) or CellTiter-Glow® Luminescent Cell Viability assay (Promega #G7572) according to the manufacturer's instructions. The compounds were tested at 5 or 6 concentrations in half-log increments (highest concentration 30 μM or 100 μM) in duplicate or triplicate well conditions.
(§2) Tumor cells were grown at 37° C. in a humidified atmosphere with 5% CO2 in RPMI 1640 or DMEM medium, supplemented with 10% (v/v) fetal calf serum and 50 μg/ml gentamicin for up to 20 passages, and were passaged once or twice weekly. Cells were harvested using TrypLE or PBS buffer containing 1 mM EDTA, and the percentage of viable cells was determined using a CASY Model TI cell counter (OMNI Life Science). Cells were harvested from exponential phase cultures, counted and plated in 96 well flat-bottom microtiter plates at a cell density depending on the cell line's growth rate (4,000-20,000 cells/well depending on the cell line's growth rate, up to 60,000 for hematological cancer cell lines) in RPMI 1640 or DMEM medium supplemented with 10% (v/v) fetal calf serum and 50 μg/ml gentamicin (140 μl/well). […] Viability of cells was quantified by the CellTiter-Blue® cell viability assay (Promega G8081) or CellTiter-Glow® Luminescent Cell Viability assay (Promega #G7572). […]

The next experiment relates to stomach PDX. The experiment is described as follows: Cell viability, stomach PDX (panel statement). The conditions noted are these: text summary of Table 22; read-out: IC50, stomach PDX growth. As to the method: PDX-derived cell cultures were obtained from tumors explanted from mice and isolated by mechanical and enzymatic dissociation. […] Cells were harvested and seeded in 96-wells plates at a density of 1.25 to 5×10^3 cells/well for cytotoxicity assays. Cells were incubated 48 h at 37° C. prior to addition of test molecules and vehicle (DMSO, 0.1%) at desired final concentrations. Cell viability was assessed before drugs' addition (To) and 5 days after test molecules addition by measuring ATP cell content using CellTiter-Glo® Luminescent Cell Viability Assay (Promega) according to the manufacturer's instructions. Luciferase activity was measured on a luminometer (PerkinElmer® EnVision™). Each concentration of compounds was tested in triplicate.
Viability was calculated as a percentage of ATP value compared to vehicle treated controls.
For PDX primary cell cultures, the tumour tissue was washed with PBS containing antibiotic-antimycotic and non-tumour tissue and necrotic tumour tissues were separated. The tumour tissue was transferred to a new dish and cut into 1˜2 mm^3 fragments, resuspended in RPMI-1640 medium and centrifuged at 1,200 rpm for 6 min at room temperature. The pelleted material was resuspended with 15 mL of Tumour Cell Digestion Solution and incubated at 37° C. for 1 hour with agitation. […]

The next experiment relates to pancreatic cancer cell. The experiment is described as follows: Cell viability, pancreatic cancer cells (panel statement). The conditions noted are these: text summary of Tables 18A and 18B, read-out: IC50, pancreatic cancer cell growth. As to the method: as §1, §2
The next experiment deals with breast cancer cell. In words: Cell viability, breast cancer cells (panel statement). As to conditions: text summary of Tables 4A & 4B; read-out: IC50, breast cancer cell growth. The method, then:
as §1, §2

In another experiment the test system is CALU-6. The experiment is described as follows: Cell viability assay, CALU-6. As to conditions: Homo sapiens; lung carcinoma cell line CALU-6. The method, then: as §1, §2
In another experiment the test system is U-251. In words: Cell viability assay, U-251. The conditions noted are these: Homo sapiens; brain carcinoma cell line U-251. As to the method: as §1, §2

With `COc1c(O)ccc2c(=O)c(O)c(-c3ccc(CCCC[P+](c4ccccc4)(c4ccccc4)c4ccccc4)cc3)oc12` [SND190, (4-(4-(3,7-Dihydroxy-8-methoxy-4-oxo-4H1-chromen-2-yl)phenyl)butyl)triphenylphosphonium bromide], the half-inhibitory concentration (IC50) is 0.33 µM in the experiment on Mia-Pa-Ca-2; below 20 µM in the experiment with stomach PDX; below 20 µM with pancreatic cancer cell; below 5 µM in the experiment on breast cancer cell; 2.39 µM in the experiment on CALU-6; 7.54 µM with U-251.
